According to patent US8512723B2, “Antimicrobial compositions and methods” (3M Innovative Properties Company, priority 2003, dated 2013):

How the values were obtained:
[1] = tested on: 30 MRSA isolates; assay: Emergence of Resistance Test; format: cell-based, Staphylococcus aureus
Method: (§1) Overnight cultures of each of 30 MRSA isolates and 30 Methicillin Susceptible Stapyloccus aureus (MSSA) isolates were grown in Mueller-Hinton broth (MHB) at 35° C. in room air. Bacteria in the broth were concentrated by centrifugation for 15 minutes at 2,200 revolustions per minute (rpm). The spent broth was decanted and replaced with fresh MHB containing 0.5 μL per mL of each of three antimicrobial compositions (Examples 31(IPA), 32(IPA), and 33(IPA)) or 0.125 μg/mL of mupirocin lithium salt (Sigma Aldrich, Milwaukee, Wis.). The cultures were returned to the incubator for 18 hours. Following incubation, each culture was again centrifuged and the bacterial pellet was divided into two aliquots. One aliquot was resuspended in MHB containing fresh antimicrobial compositions at twice the previous concentrations and returned to the incubator for continued exposure.
(§2) The second aliquot was screened for MRSA and MSSA by incubation with 2 mL of MHB containing 4 μg/mL of mupirocin or 1,200 μg/mL of Examples 31(IPA) or 32(IPA) or 33 (IPA). The resistance screens were incubated overnight at 35° C. in room air. After incubation, each screen was subcultured to fresh MHB and incubated for 4 to 6 hours. Minimum inhibitory concentration (MIC) testing was performed on logarithmically growing bacteria recovered from the screen. This procedure was repeated for 8 days. After 8 days of serial exposure, each bacterial pellet was resuspended in bland MHB and incubated overnight. The MIC of each antimicrobial composition or mupirocin was determined as the MIC90 (range) before and daily during serial passage.
(§3) The IPA modified antimicrobial compositions were tested using the Emergence of Resistance Test. The results are shown at baseline (T0), after eight days (T8) and the ratio of T0 to T8 in Table 9d.

[2] = tested on: 30 Methicillin Susceptible Stapyloccus aureus (MSSA) isolates; assay: Emergence of Resistance Test; format: cell-based, Staphylococcus aureus
Method: as §1, §2, §3

[3] = tested on: MRSA #561 (clinical isolate of methicillin resistant staphylococcus); assay: Murine MRSA nasal colonization model; format: in vivo, mice; conditions: 10 μL per nare, three times daily for two days; nares cultured three days after treatment
Method: 1999 Infect and Immunity 67(10) 5001-5006. Prior to evaluation of the active compositions the lowest number of S. aureus required to establish nasal colonization in 70% of mice detectable 5 days after challenge and persisting at least 10 days after challenge was determined. This was using an innoculum of 10^8 cfu/nare. Mice (239 described as 25 g to 30 g Hsd:ICR) were challenged intranasally with 10^8 MRSA #561 (a clinical isolate of methicillin resistant staphylococcus obtained from Mayo Clinic, Rochester, Minn.) and arbitrarily assigned to one of five treatment regimens: mupirocin ointment, bland ointment, antimicrobial compositions of Examples 31, 32, and 33. The bland ointment consisted of petrolatum (89%), glycerin (10%) and DOSS (1%). Mice received either no treatment (none) or treatment with 10 μL per nare of warmed (42° C.) ointment (one of five) to each nare, three times daily for two days Three days after treatment, both anterior nares were swabbed and cultured for MRSA. Colonies appearing to be S. aureus were confirmed with a latex agglutination test. S. aureus was detected in 160 colonization cultures from 239 mice challenged. These mice continued to be studied. The results of the treatments are listed in Table 9e as the number of animals with no MRSA detected after treatment (successful), the percent of the animals treated successfully, the number of animals with MRSA (failure), and the percent of animals whose treatment failed.

[4] = MIC90 after eight days (T8) of serial exposure, unit assumed
[5] = MIC90 at baseline (T0), unit assumed

C/C(=C\C(=O)OCCCCCCCCC(=O)O)C[C@@H]1OC[C@H](C[C@@H]2O[C@H]2[C@@H](C)[C@H](C)O)[C@@H](O)[C@H]1O [Mupirocin, mupirocin]
MRSA Final (T8) MIC [1, 4]: 64 µg/mL | MRSA Initial (T0) MIC [1, 5]: 0.25 µg/mL | Increase of the MIC ([1]; eight days of serial exposure): increased dramatically | MSSA Final (T8) MIC [2, 4]: 128 µg/mL | MSSA Initial (T0) MIC [2, 5]: 0.25 µg/mL | MSSA MIC fold increase (T8/T0) ([2]; ratio of MIC at T0 and T8): 512 | Number of Mice with MRSA [3]: 19 | Number of Mice without MRSA [3]: 19 | Percent Treated Successfully [3]: 50% | Percent Whose Treatment Failed [3]: 50%
